# Measured values: patent US7135477B2, “Heterocyclic compounds which inhibit leukocyte adhesion mediated by α4 integrins” (Elan Pharmaceuticals, Inc., priority 2002, dated 2006)
# Assay: Cassette dosing and serum analysis for determination of bioavailability
# Assay type: in vivo, rat
# Conditions: male Sprague Dawley rats, oral cassette of 6 compounds as sodium salts, total dose 10 mg/kg, plasma at 4, 8 and 12 h, linear trapezoidal rule
# Method: Cassette Dosing and Serum Analysis for Determination of Bioavailability
# The cassette included 5 test articles and a standard compound, for a total dose of 10 mg/kg. Each compound/test article was converted to the sodium salt with equimolar 1 N NaOH and dissolved in water at 2 mg/mL. The cassette was prepared by mixing equal volumes of each of the six solutions. The cassette dosing solution was mixed well and then the pH was adjusted to 7.5–9. The dosing solution was prepared the day before the study and stirred overnight at room temperature.
# Male Sprague Dawley (SD) rats from Charles River Laboratories, 6–8 weeks old were used in this screen. Rats were quarantined for at least one day and had continuous access to food and water. On the night before the administration of the cassette, the rats were fasted for approximately 16 h.
# Four SD rats were assigned in each cassette. A single dose of the dosing solution was administered orally to each rat. The dosing volume (5 mL/kg) and time were recorded and rats were fed 2 h after dosing.
# Blood samples were collected via cardiac puncture at the following time points: 4 h, 8 h and 12 h. Immediately prior to blood collection, rats were anesthetized with CO2 gas within 10–20 seconds. After the 12-h samples were collected, the rats were euthanized via CO2 asphyxiation followed by cervical dislocation.
# Blood samples were kept in heparinized microtainer tubes under sub-ambient temperature (4° C.) before they were processed. Blood samples were centrifuged (10000 rpm for 5 minutes) and plasma samples were removed and stored in a −20° C. freezer until analyzed for drug levels. Drug levels in the plasma were analyzed using the following protocol for direct plasma precipitation.
# The in vivo plasma samples were prepared in a 1.5 mL 96-well plate, by adding, in order, 100 μL of the test plasma, 150 μL of methanol, followed by vortexing for 10–20 seconds. 150 μL of 0.05 ng/μL of an Internal Standard in acetonitrile were added and vortexed for 30 seconds.
# The standard curve samples were prepared in a 1.5 mL 96-well plate, by adding, in order, 100 μL of control mouse plasma, followed by 150 μL of methanol and vortexing for 10–20 seconds. 150 μL of 0.05 ng/μL of an Internal Standard in acetonitrile were added and vortexed for 30 seconds. The samples were spiked with 0–200 ng (10 concentrations) of the compound of interest in 50% methanol to obtain a standard curve range of 0.5 ng/mL–2,000 ng/mL. Again, the sample was vortexed for 30 seconds.
# The samples were then spun for 20–30 minutes at 3000 rpm in an Eppendorf microfuge before 80–90% of supernatant was transferred into a clean 96-well plate. The organic solvent was then evaporated until the samples were dry (under N2 at 40° C./30–60 min (ZymarkTurbovap)).
# The residue was then dissolved in […] mobile phase (50% CH3OH/0.1% TFA). LC/MS/MS was then run using a PE-Sciex API-3000 triple quadurpole mass spectrometer (SN0749707), Perkin-Elmer, Series200auto-sampler, and shimadzu 10A pump. Acquisition was done with PE-Sciex Analyst (v1.1) and data analysis and quantification were accomplished using PE-Sciex Analyst (v1.1). A 5–50 μL sample volume was injected onto a reverse phase ThermoHypersil DASH-18 column (Keystone 2.0×20 mm, 5 μm, PN: 8823025-701) using a mobile phase of 25% CH3OH, 0.1% TFA-100% CH3OH, 0.1% TFA. The run time was about 8 minutes at a flow rate of about 300 μL/minutes.
# The Area Under the Curve (AUC) was calculated using the linear trapezoidal rule from t=0 to the last sampling time tx (see Handbook of Basic Pharmacokinetics, Wolfgang A. Ritschel and Gregory L. Kearns, 5th ed, 1999). AUC^0−tx=S((Cn+Cn+1)/2))·(tn+1−tn)[(μg/mL)h]
row,SMILES,AUC (average AUC 0→12 h)
1,"CCN(CC)c1ncc(N(CC)S(=O)(=O)c2ccc(F)cc2)c(N[C@@H](Cc2ccc(OC(=O)N3CCCC3)cc2)C(=O)O)n1 [Example 2, N-(2-[N′,N′-diethylamino]-5-[N″-(4-fluorophenylsulfonyl)-N″-ethylamino]pyrimidin-4-yl)-4′-(pyrrolidin 1-ylcarbonyloxy)-L-phenylalanine]",15.971 (μg/mL)h
2,"C#CCN(c1cnc(N(CC)CC)nc1N[C@@H](Cc1ccc(OC(=O)N2CCC2)cc1)C(=O)O)S(=O)(=O)c1ccc(F)cc1 [Example 18, N-(2-[N′,N′-diethylamino]-5-[N″-(4-fluorophenylsulfonyl)-N″-propargylamino]pyrimidin-4-yl)-4′(azetidin-1-ylcarbonyloxy)-L-phenylalanine]",4.7528 (μg/mL)h
3,"CCN(CC)c1ncc(N(CC)S(=O)(=O)c2ccc(Cl)cc2)c(N[C@@H](Cc2ccc(OC(=O)N3CCC3)cc2)C(=O)O)n1 [Example 10, N-(2-[N′,N′-diethylamino]-5-[N″-(4-chlorophenylsulfonyl)-N″-ethylamino]pyrimidin-4-yl)-4′-(azetidin-1-ylcarbonyloxy)-L-phenylalanine]",2.1113 (μg/mL)h
4,"CCN(CC)c1ncc(N(CC)S(=O)(=O)c2ccc(F)cc2)c(N[C@@H](Cc2ccc(OC(=O)N3CCCCC3)cc2)C(=O)O)n1 [Example 6, N-(2-[N′,N′-diethylamino]-5-[N″-(4-fluorophenylsulfonyl)-N″-ethylamino]pyrimidin-4-yl)-4′-(piperidin-1-ylcarbonyloxy)-L-phenylalanine]",0.5125 (μg/mL)h
5,"CCN(CC)c1ncc(N(CC)S(=O)(=O)c2ccc(F)cc2F)c(N[C@@H](Cc2ccc(OC(=O)N3CCC3)cc2)C(=O)O)n1 [Example 14, N-(2-[N′N′-diethylamino]-5-[N″-(2,4-difluorophenylsulfonyl)-N″ethylamino]pyrimidin-4-yl)-4′-(azetidin-1-ylcarbonyloxy)-L-phenylalanine]",0.3566 (μg/mL)h
6,"CCN(CC)c1ncc(N(C)S(=O)(=O)c2ccc(Cl)cc2)c(N[C@@H](Cc2ccc(OC(=O)N3CCC3)cc2)C(=O)O)n1 [Example 9, N-(2-[N′,N′-diethylamino]-5-[N″-(4-chlorophenylsulfonyl)-N″-methylamino]pyrimidin-4-yl)-4′-(azetidin-1-ylcarbonyloxy)-L-phenylalanine]",2.0774 (μg/mL)h
7,"CCN(CC)c1ncc(N(C)S(=O)(=O)c2ccc(F)cc2)c(N[C@@H](Cc2ccc(OC(=O)N3CCC3)cc2)C(=O)O)n1 [Example 8, N-(2-[N′,N′-diethylamino]-5-[N″-(4-fluorophenylsulfonyl)-N″-methylamino]pyrimidin-4-yl)-4′-(azetidin-1-ylcarbonyloxy)-L-phenylalanine]",2.4082 (μg/mL)h
8,"CCN(CC)c1ncc(N(CC)S(=O)(=O)c2ccc(F)cc2F)c(N[C@@H](Cc2ccc(OC(=O)N3CCCC3)cc2)C(=O)O)n1 [Example 12, N-(2-[N′,N′-diethylamino]-5-[N″-(2,4-difluorophenylsulfonyl)-N″-ethylamino]pyrimidin-4-yl)-4′-(pyrrolidin-1-ylcarbonyloxy)-L-phenylalanine]",4.7816 (μg/mL)h
9,CCN(CC)c1ncc(N(C)S(=O)(=O)c2ccc(Cl)cc2)c(N[C@@H](Cc2ccc(OC(=O)N3CCCC3)cc2)C(=O)O)n1 [Example 4],13.829 (μg/mL)h
10,"CCN(CC)c1ncc(N(CC)S(=O)(=O)c2ccc(Cl)cc2)c(N[C@@H](Cc2ccc(OC(=O)N3CCCC3)cc2)C(=O)O)n1 [Example 1, N-(2-[N′,N′-diethylamino]-5-[N″-(4-chlorophenylsulfonyl)-N″-ethylamino]pyrimidin-4-yl)-4′-(pyrrolidin-1-ylcarbonyloxy)-L-phenylalanine]",14.798 (μg/mL)h

# Other lines, results leading:
row,AUC (average AUC 0→12 h),SMILES
1,2.1654 (μg/mL)h,"CCN(CC)c1ncc(N(C)S(=O)(=O)c2ccc(F)cc2)c(N[C@@H](Cc2ccc(OC(=O)N3CCCCC3)cc2)C(=O)O)n1 [Example 5, N-(2-[N′,N′-diethylamino]-5-[N″-(4-fluorophenylsulfonyl)-N″-methylamino]pyrimidin-4-yl)-4′-(piperidin-1-ylcarbonyloxy)-L-phenylalanine]"
2,14.818 (μg/mL)h,"CCN(CC)c1ncc(N(C)S(=O)(=O)c2ccc(F)cc2F)c(N[C@@H](Cc2ccc(OC(=O)N3CCCC3)cc2)C(=O)O)n1 [Example 11, N-(2-[N′,N′-diethylamino]-5-[N″-(2,4-difluorophenylsulfonyl)-N″-methylamino]pyrimidin-4-yl)-4′-(pyrrolidin-1-ylcarbonyloxy)-L-phenylalanine]"
3,0.8628 (μg/mL)h,"C#CCN(c1cnc(N(CC)CC)nc1N[C@@H](Cc1ccc(OC(=O)N2CCC2)cc1)C(=O)O)S(=O)(=O)c1ccc(F)cc1F [Example 17, N-(2-[N′,N′-diethylamino]-5-[N″-(2,4-difluorophenylsulfonyl)-N″-propargylamino]pyrimidin-4-yl)-4′-(azetidin-1-ylcarbonyloxy)-L-phenylalanine]"
4,23.808 (μg/mL)h,"C#CCN(c1cnc(N(CC)CC)nc1N[C@@H](Cc1ccc(OC(=O)N2CCCC2)cc1)C(=O)O)S(=O)(=O)c1ccc(F)cc1F [Example 16, N-(2-[N′,N′-diethylamino]-5-[N″-(2,4-difluorophenylsulfonyl)-N″-propargylamino]pyrimidin-4-yl)-4′-(pyrrolidin-1-ylcarbonyloxy)-L-phenylalanine]"
5,22.271 (μg/mL)h,"CCN(CC)c1ncc(N(C)S(=O)(=O)c2ccc(F)cc2)c(N[C@@H](Cc2ccc(OC(=O)N3CCCC3)cc2)C(=O)O)n1 [Example 3, N-(2-[N′,N′-diethylamino]-5-[N″-(4-fluorophenylsulfonyl)-N″-methylamino]pyrimidin-4-yl)-4′-(pyrrolidin-1-ylcarbonyloxy)-L-phenylalanine]"
6,1.283 (μg/mL)h,"CCN(CC)c1ncc(N(C)S(=O)(=O)c2ccc(F)cc2F)c(N[C@@H](Cc2ccc(OC(=O)N3CCC3)cc2)C(=O)O)n1 [Example 13, N-(2-[N′,N′-diethylamino]-5-[N″-(2,4-difluorophenylsulfonyl)-N″-methylamino]pyrimidin-4-yl)-4′-(azetidin-1-ylcarbonyloxy)-L-phenylalanine]"
7,90.317 (μg/mL)h,"C#CCN(c1cnc(N(CC)CC)nc1N[C@@H](Cc1ccc(OC(=O)N2CCCC2)cc1)C(=O)O)S(=O)(=O)c1ccc(F)cc1 [Example 15, N-(2-[N′,N′-diethylamino]-5-[N″-(4-fluorophenylsulfonyl)-N″-propargylamino]pyrimidin4-yl)-4′-(pyrrolidin-1-ylcarbonyloxy)-L-phenylalanine]"
8,0.8979 (μg/mL)h,"CCN(CC)c1ncc(N(CC)S(=O)(=O)c2ccc(F)cc2)c(N[C@@H](Cc2ccc(OC(=O)N3CCC3)cc2)C(=O)O)n1 [Example 7, N-(2-[N′,N′-diethylamino]-5-[N″-(4-fluorophenylsulfonyl)-N″-ethylamino]pyrimidin-4-yl)-4-(azetidin-1-ylcarbonyloxy)-L-phenylalanine]"
